These results are taken from patent publication US6379720B1, “Compositions containing hops extract and their use in water systems and process streams to control biological fouling” (Nalco Chemical Company, priority 2000, dated 2002).

“And” between values parts separate entries of the source, which are not always exact repeats. Equal entries are not always repeated. Bounds are passed on as bounds.

The test system of this test is Scenedesmus obliquus green algae. Kind of test: Synergism test of hops extract/biocide combinations (Kull Synergism Index), chlorophyll OD 650 nm endpoint. Type of test: cell-based. The text has this:
The accepted method used to determined synergism is described by Kull, F. C., Eisman, P. C., Sylwestrowicz, H. D., and Mayer, R. L. in Applied Microbiology 9:538-541 (1961), and is well known in the art.
The equation for determining synergism is as follows:
QaQA+Qb/QB=Synergism Index (SI)
Where QA and QB are the concentrations of compounds A or B that produce an endpoint when acting alone, and where Qa and Qb are the concentrations of compounds A or B acting in the A/B combination required to produce an endpoint. The endpoint is defined by the particular test method, for example, an optical density.
To determine synergism, one evaluates the Synergism Index (SI).
The efficacy of the invention was tested in the following manner:
Scenedesmus obliquus green algae cells were prepared in synthetic cooling water (pH 8.2) to a concentration of 10^7 CFU/ml. 100 ul of the algae suspension were added to 200 ul aliquots of hops extract antimicrobial compositions in synthetic cooling water contained in 96 well microplates (FALCON® 3075). A wide range of hops extract/biocide combinations were tested. Microplates were covered with the provided lid and incubated at 25° C. for six days with 16 hour/8 hour light/dark cycles (cool-white fluorescent lamps, 1255 lux). Following incubation, supernatant was removed from each microplate well by vacuum aspiration. […] 200 ul of dimethylsulfoxide (DMSO) were added to each microplate well to dissolve the algae cells and extract chlorophyll. The optical density at 650 nm of each extraction was determined using a plate reader (Beckman Biomek®).
A wide range of ratios of the two active ingredients can be used, depending on several factors including the microorganisms to be controlled. In this example, data designated as QA and Qa in each case are for hops extract and data designated as QB and Qb are for the other antimicrobial (IZN, POLYQUAT, GLUT, TBTZ, DCOI, THPS, BNEF, DBNPA, and DTEA).

Where [1] appears, read: with hops extract 8 ppm, Endpoint OD650 = 0.300.
Where [2] appears, read: with hops extract 16 ppm, Endpoint OD650 = 0.300.

In the case of `O=[N+]([O-])C(Br)=Cc1ccco1` [BNEF, 2-(2-bromo-2-nitroethenyl)furan], the “QB (concentration of the antimicrobial that produces the endpoint when acting alone)” value (Endpoint OD650 = 0.300, (32) used for synergy calculations) is reported as >16 (32) ppm. The “Qb (concentration of the antimicrobial in the combination required to produce the endpoint)” value reads like this: (with hops extract 4 ppm, Endpoint OD650 = 0.300) 16 ppm; under setting [1], 16 ppm; under setting [2], 1 ppm.
In the case of `N#CC(Br)(Br)C(N)=O` [DBNPA, 2,2-dibromo-3-nitrilopropionamide], the “QB (concentration of the antimicrobial that produces the endpoint when acting alone)” value (Endpoint OD650 = 0.200, (32) used for synergy calculations) is listed as >16 (32) ppm. The “Qb (concentration of the antimicrobial in the combination required to produce the endpoint)” value by setting is: (with hops extract 4 ppm, Endpoint OD650 = 0.200) 16 ppm; (with hops extract 16 ppm, Endpoint OD650 = 0.200) 16 ppm.
Turning to `CCCCCCCCn1sc(Cl)c(Cl)c1=O` [DCOI, 4,5-dichloro-2-n-octyl-4-isothiazolin-3-one], the “QB (concentration of the antimicrobial that produces the endpoint when acting alone)” value (Endpoint OD650 = 0.150, (32) used for synergy calculations) was >16 (32) ppm. The “Qb (concentration of the antimicrobial in the combination required to produce the endpoint)” value (with hops extract 4 ppm, Endpoint OD650 = 0.150) was 16 ppm; the “Qb (concentration of the antimicrobial in the combination required to produce the endpoint)” value (with hops extract 64 ppm, Endpoint OD650 = 0.150) was 8 ppm and 16 ppm.
`CCCCCCCCCCSCCN` [DTEA, 2-(decylthio)ethanamine]: the “QB (concentration of the antimicrobial that produces the endpoint when acting alone)” value (Endpoint OD650 = 0.300) is 16 ppm. In addition, the “Qb (concentration of the antimicrobial in the combination required to produce the endpoint)” value is, setting by setting: under setting [1], 4 ppm and 8 ppm; under setting [2], 1 ppm and 2 ppm.
With `O=CCCCC=O` [GLUT, glutaraldehyde], the “QB (concentration of the antimicrobial that produces the endpoint when acting alone)” value (Endpoint OD650 = 0.250, (32) used for synergy calculations) is reported as >16 (32) ppm. The “Qb (concentration of the antimicrobial in the combination required to produce the endpoint)” value (with hops extract 16 ppm, Endpoint OD650 = 0.250) is 4 ppm.
In the case of `CCNc1nc(Cl)nc(NC(C)(C)C)n1` [TBTZ, 2-(tert-butylamino)-4-chloro-6(ethylamino)-s-triazine], where the note is “Endpoint OD650 = 0.250”, the “QB (concentration of the antimicrobial that produces the endpoint when acting alone)” value is given as 16 ppm.
Regarding methylchloro/isothiazolone [IZN], for the setting “Endpoint OD650 = 0.100, (32) used for synergy calculations”, the “QB (concentration of the antimicrobial that produces the endpoint when acting alone)” value was >16 (32) ppm. The “Qb (concentration of the antimicrobial in the combination required to produce the endpoint)” value (with hops extract 16 ppm, Endpoint OD650 = 0.100) was 16 ppm; the “Qb (concentration of the antimicrobial in the combination required to produce the endpoint)” value (with hops extract 32 ppm, Endpoint OD650 = 0.100) was found to be 16 ppm; the “Qb (concentration of the antimicrobial in the combination required to produce the endpoint)” value (with hops extract 64 ppm, Endpoint OD650 = 0.100) was 8 ppm and 16 ppm; the “Qb (concentration of the antimicrobial in the combination required to produce the endpoint)” value (with hops extract 128 ppm, Endpoint OD650 = 0.100) is 8 ppm and 16 ppm; the “Qb (concentration of the antimicrobial in the combination required to produce the endpoint)” value (with hops extract 256 ppm, Endpoint OD650 = 0.100) came to 8 ppm.
For the compound “tetrakishydroxymethyl phosphonium sulfate [THPS]”, the “QB (concentration of the antimicrobial that produces the endpoint when acting alone)” value (Endpoint OD650 = 0.250) is 16 ppm. Also, the “Qb (concentration of the antimicrobial in the combination required to produce the endpoint)” value runs as follows: (with hops extract 4 ppm, Endpoint OD650 = 0.250) 4 ppm; (with hops extract 8 ppm, Endpoint OD650 = 0.250) 4 ppm and 8 ppm.
